# Source: US10450295B2, “Method of using an indolinone molecule and derivatives for inhibiting liver fibrosis and hepatitis” (Acclaim BioMed USA LLC, priority 2013, dated 2019)
# Legend:
# human HSC's (LX-2) = experiment: HSC morphology under the microscope; type: cell-based
# Procedure: In the control cultures, the HSCs appeared morphologically to be like fibroblasts (FIG. 1A). In the presence of Hesperadin, the HSC cells increased in size 2-3 folds (FIGS. 1B and C). The effect of Hesperadin on HSC growth was examined. […] The cell-cycle progression of HSCs is further analyzed in the presence of 0.625 μM Hesperadin using Flow Cytometry. […] Human Hepatic Stellate cells (LX-2 cell line) (HSCs) were obtained from the Key Lab of Regenerative Medicine, Jinan University, Guangzhou, China, which were maintained in Dulbecco's Modified Eagle Medium (DMEM)+10% fetal calf serum and penicillin-streptomycin (100 unit/ml and 0.1 mg/ml, respectively), in 5% CO2 at 37° C. inside a humidified cell incubator. The culture medium was changed every three days. To test the effects of small molecule Hesperadin on the mouse and human HSCs, the cultures were treated with 0.625 μM of Hesperadin for 48 hrs. The cultures were then fixed in ice cold 70% ethanol and incubated in phosphate buffered saline with RNase (0.25 mg/ml), Propidium iodide dye (40 μg/ml) and 0.1% Triton X for an hour at room temperature. […] The proliferation of HSCs was also evaluated by the MTT staining assay with 3-(4,5-Dimethylthiazol-2-yl)-2,5-diphenyltetrazolium bromide). […] The absorbance (at 570 nm) was measured using a BIORAD 3550 Microplate Reader. […]
# Mammalian cells = settings: cited from earlier work
# [1] = system: cultured bloodstream forms (BF); settings: read-out: IC50, growth of cultured bloodstream forms (BF); cited from earlier work
# MMP-9 gene expression = experiment: Real-time RT-PCR in HSC, MMP-9; type: cell-based, human; settings: 0.625 μM, FIG. 10
# Procedure: Human Hepatic Stellate cells (LX-2 cell line) (HSCs) were obtained from the Key Lab of Regenerative Medicine, Jinan University, Guangzhou, China, which were maintained in Dulbecco's Modified Eagle Medium (DMEM)+10% fetal calf serum and penicillin-streptomycin (100 unit/ml and 0.1 mg/ml, respectively), in 5% CO2 at 37° C. inside a humidified cell incubator. The culture medium was changed every three days. To test the effects of small molecule Hesperadin on the mouse and human HSCs, the cultures were treated with 0.625 μM of Hesperadin for 48 hrs. […] The proliferation of HSCs was also evaluated by the MTT staining assay with 3-(4,5-Dimethylthiazol-2-yl)-2,5-diphenyltetrazolium bromide). […] The absorbance (at 570 nm) was measured using a BIORAD 3550 Microplate Reader. […]
# Collagen type-I, -III and -VI, MMP-2, MMP-9 and TIMP-1 gene expression was determined using quantitative real-time PCR. […] Quantitation of mRNA levels was performed using a SYBR® Premix Ex Taq™ Kit (Takara) in an Applied Biosystems 7900HT Fast Real-Time PCR System. To quantify the amount of specific mRNA in the samples, a standard curve was generated for each PCR run using four amounts of the cDNA synthesized from our HSC cultures and liver samples. […] Data was analyzed using a StatView software (Abacus Concepts Inc) with Student's t-test.
smiles,measurement,setting,value
"CCS(=O)(=O)Nc1ccc2c(c1)/C(=C(/Nc1ccc(CN3CCCCC3)cc1)c1ccccc1)C(=O)N2 [Hesperadin, (Z)—N-(2-oxo-3-(Phenyl(4-(piperidin-1-ylmethyl)phenylamino)methylene)indolin-5-yl)ethanesulfonamide]",increase in HSC cell size,"human HSC's (LX-2); 0.625 or 1.25 μM, 48 hrs",2-3 folds
same,increase in HSC size (FIG. 1),"human HSC's (LX-2); 0.65 and 1.25 μM, 24 hours",several folds
same,time to enter anaphase,Mammalian cells; cells arrested by taxol or monastrol,< 1 h
same,time cells stayed arrested,Mammalian cells; cells in nocodazole,3 to 5 h
same,effect on nuclear division and cytokinesis,Mammalian cells,blocks nuclear division and cytokinesis
same,IC50,[1],50 nM
same,MMP-9 mRNA expression,MMP-9 gene expression,inhibited
